Assay [1] deals with Two-spotted Spider Mite. Put plainly: Two-spotted Spider Mite test. In kind it is in vivo, Tetranychus urticae (Acarina). Conditions: 48 h. On the procedure:
The procedure in this test is the same as that in the previous aphid test, except that about 100 two-spotted spider mites from a stock colony raised on squash plants are transferred to a cut squash cotyledon. The mortality is estimated 48 hours after spraying. The same rating scale is used.

The subject of assay [2] is House Fly. Put plainly: Housefly (Contact) Test. The format is in vivo, Musca domestica (Diptera). The settings on record: 24 h. As to the method: Rearing cages containing four-day old adult house flies are chilled at 35°-40° F. for about 1 hour. One hundred flies are transferred from the rearing cage to each test cage using a small scoop. The caged flies are kept for 1-2 hours at 70°-80° F. The cages are sprayed in the same manner as described for the milkweed bug with 5 ml. of the test formulation. Two unsprayed cages are held as controls and two cages are sprayed with a 50 ppm DDT formulation as a reference standard. Mortality counts are made 24 hours after spraying. […] The same rating scale is employed as heretofore.

For assay [3], the system named is Oriental Cockroach. Put plainly: Oriental Roach Test. In kind it is in vivo, Blatta orientalis (Orthoptera). Conditions: 24 h. On the procedure:
A rearing pan of late instar (3-4 months old) roaches is placed in a cold room for about 1 hour. Ten nymphs are taken from the pan and placed in each cage and the caged insects are kept at 70°-80° F. for 1 hour. The test cages are then sprayed in the manner indicated above in the milkweed bug test using 5 ml. of a formulation containing a specified amount of the insecticide. The test cages are held for 72 hours during which time the cockroaches are neither fed nor watered. Controls consist of 2 unsprayed cages, two cages sprayed with the formulation alone and 2 cages with a formulation containing 1000 ppm of heptachlor. Mortality counts are made 24 hours after spraying by shaking the cages lightly. All cockroaches remaining in the bottom are counted as dead.

Assay [4] concerns Mexican Bean Beetle. Put plainly: Mexican Bean Beetle Test. In kind it is in vivo, Epilachna varivestis (Coleoptera). Conditions: 48 h. As to the method: Cuttings of four six-day old Bountiful snap bean plants containing two leaves with approximately 5 square inches of leaf surface, are placed in water. The leaves are sprayed to wetting with about 5-10 ml. of a formulation containing a pre-determined level of the test compound. Half of the formulation is sprayed on the top surface and half on the bottom surface of the leaf using a DeVilbiss atomizer at 10 psi held at a distance of about 18 inches from the leaf. After the leaves have dried, they are cut from the stem and placed separately in petri dishes. Ten third instar, nonmolting Mexican bean beetle larvae grown on Bountiful snap beans are placed on each leaf. Controls consist of two leaves sprayed with 5 ml. of a 500 ppm malathion formulation (reference standard), two leaves sprayed with the formulation without the active ingredient and two leaves are held as untreated controls. After 48 hours, a mortality count is made and the amount of feeding noted. Moribund larvae are counted as dead.

In assay [5] the test system is House Fly. Put plainly: Housefly (Stomach) Test. The format is in vivo, Musca domestica (Diptera). The settings on record: 24 h. As to the method: Ten chilled house flies are taken from the rearing cage and placed in a covered petri dish. Sugar cubes treated with 0.2 ml. of a formulation containing a specified level of the insecticide are placed in the petri dish one hour after the flies have been removed from the chill room. Controls consist of sugar cubes treated with 0.2 ml. of deionized water and cubes treated with 0.2 ml. of a formulation containing 500 ppm of malathion. Mortality counts are made 24 hours later. The same rating scale is used as before.

For assay [6], the system named is Milkweed Bug. Nature of the assay: Milkweed Bug Test. The settings on record: 48 h. In kind it is in vivo, Oncopeltis fasciatus (Hemiptera). As to the method:
Ten adult milkweed bugs are chilled and placed in a test cage. The cages containing the bugs are sprayed with 5 ml. of a test formulation containing a pre-determined amount of the insecticide, using a DeVilbiss atomizer at 10 psi held 33 inches from the top of the cage. After the cage has been allowed to dry, the bugs are fed and watered for 48 hours. A formulation containing 500 ppm of malathion is used as a reference standard and two unsprayed cages are kept as controls. Mortality counts are made 48 hours after spraying. Moribund adults are considered dead. The same rating scale is employed as before.

In assay [7] the test system is Boll Weevil. Put plainly: Boll Weevil Test. The settings on record: 48 h. In kind it is in vivo, Anthonomus grandis (Coleoptera). An excerpt: The procedure is identical to that employed for the Mexican bean beetle and the Southern armyworm, except that 10 adult boll weevils are placed on cotton leaves that have been dipped into formulations of the test compounds. The same rating scale is used.

For assay [8], the system named is Yellow Mealworm Larvae. Nature of the assay: Field trial, topical application. In kind it is in vivo. Also on record: key: 0 = 0-10% mortality, 9 = 91-100% mortality (0-9 scale). As to the method:
(§1) The results are read at 24, 48, and 72 hours when applicable. The rating scale is 0 to 9 where 0 = 0-10 percent and 9 = 91-100 percent mortality.
In a variation of the above test, 1 microliter of a test solution containing a predetermined number of micrograms of benzimidazole was applied directly to larvae or adult insects.
(§2) Using the above methods, field trials were carried out against species of 5 orders of insects. The results, which are summarized in the following tables, give the average mortality for the particular insect with a given benzimidazole for each concentration employed. […] These tables contain all results obtained during the summer trials.

In assay [9] the test system is Melon Aphid. Put plainly: Melon Aphid Test. In kind it is in vivo, Aphis gossypii (Hemiptera). The settings on record: 250 ppm, 24 h. An excerpt: Four blue hubbard squash seeds are planted per container in vermiculite and the containers watered from the bottom. After 6 days, the two weakest plants are cut off and one cotyledon and the primary leaves are removed from each of the two remaining plants. The remaining cotyledon is infested with 100 melon aphids from a stock colony by pinning the cotyledon against an aphid-infested squash cotyledon from the colony and allowing the aphids to transfer. After transfer, the colony leaf is removed. Forty-eight hours later, the infested leaves are sprayed to wetting with formulations containing graded amounts of the insecticide using a DeVilbiss atomizer at 10 psi held at 12-15 inches from the plant. Controls consist of two infested, unsprayed squash plants and two infested plants sprayed to wetting with a formulation containing 100 ppm malathion as a reference standard. The mortality is estimated 24 hours after spraying by observation using a 10 power dissecting microscope. The same rating scale is used as before.

Assay [10] concerns Meadow Spittlebug. Nature of the assay: Field trial, stomach poison test. In kind it is in vivo. As to the method: (§3) Leaves from the infested plant are treated with different concentrations of the test compounds, either by spraying with a DeVilbiss Special Atomizer (5004) at 10 psi or by dipping the leaves in solutions containing the compound. The leaves are then allowed to air dry.
(§4) After the leaves have dryed, they are placed in plastic petri dishes (100 × 25 mm), then the insects are counted out into each dish, five or ten insects per dish depending on the number of insects available. There are one or two replicates and usually two or three rates with each compound. Mortality results are taken at 24, 48 and 72 hours. The rating scale is 0 to 9.
as §2

Assay [11] deals with Southern Corn Rootworm Adults. Nature of the assay: Field trial, contact poison test. In kind it is in vivo.
Excerpt: (§5) Infested plants are placed in 6 oz. prescription bottles filled with water to keep them from wilting. Cellucotton is wrapped around the plant stem and squeezed into the bottle neck to prevent the insects from drowning.
(§6) A DeVilbiss Special Atomizer (5004) is used at 10 psi to spray the test plant with different concentrations of compounds. The atomizer is held at arm's length to prevent blowing the insects off the host plant. After treating, the bottles are placed on a table covered with brown wrapping paper to catch the dead insects as they drop from the plant. The plants are spaced so the leaves or plants are not touching one another.
as §1, §2

In assay [12] the test system is Tarnished Plant Bug Adults. Put plainly: Field trial, stomach poison test. The format is in vivo. Also on record: key: mortality rating on a 0 to 9 scale. As to the method: as §3, §4, §2
Assay [13] has as its system Unidentified Green Leafhopper. Nature of the assay: Field trial, stomach poison test. In kind it is in vivo. Also on record: key: mortality rating on a 0 to 9 scale. On the procedure:
as §3, §4, §2

Assay [14] relates to Squash Bug Adults. Nature of the assay: Field trial, contact poison test. In kind it is in vivo. Also on record: key: 0-9 rating: 0 = 0-10% mortality, 9 = 91-100% mortality.
Excerpt: as §5, §6, §1, §2

The subject of assay [15] is Southern Corn Rootworm Adults. Put plainly: Field trial, stomach poison test. The format is in vivo. The arrangement: key: mortality rating on a 0 to 9 scale. As to the method:
as §3, §4, §2

On to `CC(COc1ccc(C(C)(C)C)cc1)OS(=O)OCCCl` (stereo not drawn) [Aramite, reference compound], for which, in assay [1] (50 ppm), the mortality rating was 7-9.
As for `Clc1ccc(C(c2ccc(Cl)cc2)C(Cl)(Cl)Cl)cc1` [DDT, reference compound], the mortality rating in assay [2] (50 ppm) is recorded as 6-8.
On to `CCOC(=O)n1c(C(F)(F)F)nc2c([N+](=O)[O-])cc(C(F)(F)F)cc21` [G, ethyl 2,6-bis(trifluoromethyl)-4-nitro-1-benzimidazolecarboxylate], for which, in assay [3] (1000 ppm), the mortality rating is reported as 5.5.
`ClC1=C(Cl)C2(Cl)C3C(Cl)C=CC3C1(Cl)C2(Cl)Cl` (stereo not drawn) [Heptachlor, reference compound]: the mortality rating in assay [3] (1000 ppm) is listed as 8-9.
For `CCOC(=O)CC(SP(=S)(OC)OC)C(=O)OCC` (stereo not drawn) [Malathion, reference compound], the mortality rating in assay [4] (500 ppm) is 7- 8; in [5] (500 ppm), 6-7; in assay [6] (500 ppm), 7-8; in assay [7] (500 ppm) it was 7-8.
In the case of `O=C(Oc1ccc([N+](=O)[O-])cc1)n1c(C(F)(F)F)nc2c([N+](=O)[O-])cc(C(F)(F)F)cc21` [N, p-nitrophenyl-4-nitro-2,6-bis(trifluoromethyl)-1-benzimidazolecarboxylate], the average mortality rating in assay [8] (0.03 μg/μl) is listed as 1; in assay [8] (0.07 μg/μl), 3; in [8] (0.15 μg/μl), 7; in [10] (10 ppm), 1; in assay [10] (25 ppm), 1; in assay [10] (50 ppm), 0 (0-10 percent). Also, the average mortality rating is listed as 0 (0-10 percent) in assay [11] (25 ppm); 5 in [11] (50 ppm); 3 in assay [11] (100 ppm); 3 in assay [12] (10 ppm); 3 in assay [12] (25 ppm); 3 in assay [12] (50 ppm). Moreover, the average mortality rating in assay [13] (10 ppm) is 0 (0-10 percent); in assay [13] (25 ppm) it was 1; in assay [13] (50 ppm), 3; in assay [14] (125 ppm) it was 1; in assay [14] (250 ppm) it was 6; in [14] (500 ppm) it was 5. The average mortality rating in assay [14] (750 ppm) is on record as 8. The mortality rating came to 7.5 in [9]; 1.5 in assay [7] (10 ppm); 3.5 in assay [7] (25 ppm); 2.5 in assay [1] (1 ppm); 1.5 in assay [1] (5 ppm); 8.5 in [1] (500 ppm). Besides, the mortality rating in assay [3] (500 ppm) is 4.5; in [3] (1000 ppm), 5.5.
Consider “mixture of 7-nitro-1-piperidinothionocarbonyl-2,5-bis(trifluoromethyl)benzimidazole and 4-nitro-1-piperidinothionocarbonyl-2,6-bis(trifluoromethyl)benzimidazole”, for which the average mortality rating in assay [8] (0.03 μg/μl) is recorded as 3; in [8] (0.07 μg/μl), 3; in [8] (0.15 μg/μl) it was 3; in assay [11] (25 ppm), 0 (0-10 percent); in assay [11] (50 ppm) it was 9 (91-100 percent mortality); in assay [11] (100 ppm), 9 (91-100 percent mortality). The average mortality rating in [15] (25 ppm) came out at 1; in assay [15] (50 ppm) it was 7; in assay [15] (100 ppm), 3.
For the molecule “mixture of N-ethyl-4-nitro-2,6-bis(trifluoromethyl)thio-1-benzimidazolecarboxanilide and N-ethyl-nitro-2,5-bis(trifluoromethyl)thio-1-benzimidazolecarboxanilide”, the mortality rating is recorded as 1.5 in assay [4] (10 ppm); 6 (61-70) in assay [4] (25 ppm); 5.5 in assay [4] (50 ppm); 6.5 in assay [4] (100 ppm); 9 (91-100) in assay [4] (250 ppm); 9 (91-100) in assay [4] (500 ppm). The mortality rating in assay [4] (1000 ppm) is reported as 9 (91-100); in assay [5] (1000 ppm), 1 (11-20); in [6] (1000 ppm), 1 (11-20); in [7] (10 ppm), 0 (0-10); in assay [7] (25 ppm), 6.5; in assay [7] (50 ppm) it was 7.5. The mortality rating is 8 (81-90) in assay [7] (100 ppm); 8.5 in assay [7] (250 ppm); 9 (91-100) in [7] (500 ppm); 9 (91-100) in assay [7] (1000 ppm); 5 (51-60) in [1] (1000 ppm); 0 (0-10) in assay [3] (1000 ppm). The mortality rating in [2] (10 ppm) was 6.5; in assay [2] (25 ppm), 8.5; in assay [2] (50 ppm), 8 (81-90); in assay [2] (100 ppm), 8 (81-90); in [2] (250 ppm), 9 (91-100); in assay [2] (500 ppm), 9 (91-100). Also, the mortality rating in assay [2] (1000 ppm) is 7 (71-80).
